According to patent US20250248979A1, “NOVEL GPX4 INHIBITORS AND USES THEREOF” (THE TRUSTEES OF COLUMBIA UNIVERSITY IN THE CITY OF NEW YORK, priority 2022, published 2025):
In brackets after ≈: the same amount, converted by molar mass. Entries after “also recorded” stand apart in the source; their conditions may differ. Like-named read-outs stand apart in the source and are kept apart here.

How the values were obtained:
GPX4^U46C = target: T1, GPX4^U46C (Homo sapiens, UniProt P36969, U73C); experiment: Microscale thermophoresis (MST) binding; conditions: for EC50: half maximal effective concentration, covalent mechanism
T1 construct: made in house; host or cells: E. coli BL21-Gold (DE3)
T1 sequence (P36969 1-170 isoform P36969-2 U46C): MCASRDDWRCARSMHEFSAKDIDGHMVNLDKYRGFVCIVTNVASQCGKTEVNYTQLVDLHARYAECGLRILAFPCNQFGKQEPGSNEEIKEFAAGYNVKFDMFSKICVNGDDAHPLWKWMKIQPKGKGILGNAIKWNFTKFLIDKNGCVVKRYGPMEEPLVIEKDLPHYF
Protocol: The bacterial expression vector pET-15b-His-tagged-c-GPX4^U46C was prepared as previously described (Yang et al. 2016). The C-terminal His-tagged GPX4U46C protein was expressed in E. coli and purified according to a protocol modified from Scheerer et al. 2007. First, pET-15b-His-tagged-c-GPX4^U46C was transformed into XL10-Gold (Agilent #200314) E. coli ultracompetent cells for plasmid DNA production and isolated using QIAprep Spin Miniprep Kit (Qiagen). For protein expression, pET-15b-His-tagged-c-GPX4^U46C was then transformed into BL21-Gold (DE3) E. coli competent cells (Agilent #230132) and plated on LB agar with 100 μg/mL ampicillin. A starter culture was inoculated in 7 mL of LB medium with 100 μg/mL ampicillin using a single colony and allowed to grow in a 37° C. shaker (225 rpm) for 16 hours. 3 mL of the starter culture was added to 1 L of LB medium with 100 μg/mL ampicillin, which was then incubated in a 37° C. shaker (225 rpm) to an OD600 of 0.9. At that point, the incubation temperature was reduced to 15° C. and the culture was allowed to equilibrate for 1 hour. Expression of the recombinant enzyme was induced by addition of isopropyl β-D-1-thiogalactopyranoside (IPTG, 1 mM final concentration) overnight for 12-15 hours shaking at 225 rpm and 15° C. The next morning, cells were harvested by centrifugation at 4000 rpm and 4° C. for 20 minutes. The cell pellet was then frozen at −80° C. for at least 1 hour or until lysis. To lyse the cells, the cell pellet was resuspended with 25 mL of chilled lysis buffer (100 mM Tris pH 8.0, 300 mM NaCl, 20 mM imidazole, 3 mM TCEP, and 2.5 mini tablets of complete Protease Inhibitor Cocktail (Roche-Sigma #11836170001)) then lysed using an Emulsiflex C3 high-pressure homogenizer. To remove cell debris, the lysate was subjected to centrifugation at 10000 rpm and 4° C. for 20 minutes. The supernatant was centrifuged once more at the same conditions, then the clarified lysate was applied onto a 5-mL HisTrap HP column (Cytiva #17-5248-01), washed with 90% Buffer A (100 mM Tris pH 8.0, 300 mM NaCl, 5% glycerol, 3 mM TCEP) 10% Buffer B (Buffer A with 500 mM imidazole), then eluted with a continuous gradient (10-100% Buffer B). The protein was concentrated using Amicon Ultra-15 centrifugal filter units with a 10 kDa molecule weight cutoff (EMD Millipore #UFC901024) then further purified by FPLC on a size exclusion HiLoad Superdex 200 column (Cytiva) in crystallization buffer (20 mM Tris pH 8.0, 300 mM NaCl, 3 mM TCEP). The fractions containing 90-95% pure GPX4 protein, as evaluated by SDS-PAGE, were pooled and concentrated using the same Amicon centrifugal filter units as above to 5 mg/mL. Concentration was determined by Nanodrop. Protein was aliquoted into Eppendorf tubes, flash frozen using liquid nitrogen, and stored at −80° C. until use.
MST experiments were conducted using a Monolith NT.115 (Nanotemper Technologies) according to manufacturer instructions. To label the protein, 90 μL of 200 nM GPX4^U46C was combined with 90 μL of 100 nM RED-tris-NTA dye diluted in PBS buffer with 0.05% Tween 20 (PBST buffer). The mixture was incubated for 30 minutes at room temperature, followed by centrifugation for 10 minutes at 4° C. and 15,000×g. To assess binding of the compounds, a 16-point 2-fold dilution series in PBST buffer was prepared and mixed in a 1:1 ratio with the labeled protein solution for a final volume of 20 μL. The reaction mixture was loaded into standard treated capillary tubes and analyzed with the Monolith NT.115 at 40% LED power and 40% MST power with a laser-on time of 5 seconds. The data were analyzed in MO.Affinity Analysis v2.3 software.

HT-1080 cells = experiment: Cellular dose response assay, HT-1080 with and without Fer-1; assay type: cell-based, human
In short: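 Cells were seeded at 1500 per well, grown overnight, then treated in triplicate with 12-point 2-fold compound dilutions (0.4% DMSO final) for 48 h at 37 °C, 5% CO2. HT-1080 series were run with and without Fer-1. Viability was read by CellTiter-Glo luminescence.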

[1] = tested on: lipid peroxidation in HT-1080 cells; experiment: C11-BODIPY lipid peroxidation flow cytometry assay; assay type: cell-based, human
[2] = Kinetic aqueous solubility
[3] = tested on: DTP cells derived from PC9; experiment: Drug-tolerant persister cell model, DTP cells; conditions: for viability at 10 µM: Homo sapiens; for % Viability Persister: 48 hours
SU-DHL-6 = experiment: Cytotoxicity in DLBCL cells, SU-DHL-6; assay type: cell-based, human; conditions: for IC50: SU-DHL-6
[4] = with Fer-1, Table 10, read-out: IC50 (μM) HT1080 + Fer-1
[5] = HT-1080 cells, with and without fer-1
[6] = Fer-1 1.0 μM, read-out: IC50 (μM) with Fer-1
[7] = compounds alone, Table 4, read-out: IC50 (uM) HT1080^a
[8] = with fer-1, Table 4, read-out: IC50 (uM) HT1080^b

Cn1nc(C(=O)NC(C)(C)COC(=O)CCl)c2ccc(Br)cc21 [QW-314]
Kd (GPX4^U46C; MST): 5.8 µM
IC50 (HT-1080 cells; Homo sapiens, HT-1080, read-out: IC50 (uM) HT1080^a): 1.9 µM
IC50 (HT-1080 cells; Homo sapiens, HT-1080, read-out: IC50 (uM) HT1080^b): 77.4 µM
lipid peroxidation (C11-BODIPY), result in words [1]: increased lipid peroxidation that is rescuable by ferrostatin-1
solubility at 1 h ([2]; phosphate buffered saline, pH 7.4, aqueous buffer, kinetic from dmso stock): 61 µM (≈ 24.6 µg/mL)
selectivity for DTPs vs PC9 parental cells, result in words [3]: selective lethality in DTPs vs PC9 parental cells; also recorded: preferential induction of significantly more cell death in the DTP cells compared to the parental cells
viability at 10 µM ([3]; 48 h, read-out: % Viability Persister): 22%
viability at 10 µM ([3]; read-out: % Viability Persister + 2 μM Fer-1): 73%

CC(C)(COC(=O)CCl)NC(=O)c1nn(Cc2cc(Cl)cc(Cl)c2)c2cc(-c3ccc(N4CCOCC4)c(Cl)c3)ccc12 [QW-852]
Selectivity (HT-1080 cells): >1000
IC50 (HT-1080 cells; read-out: IC50 against HT1080 cell lines): 0.0395 µM
IC50 (HT-1080 cells; [4]): > 40 µM
lipid peroxidation (C11-BODIPY), result in words [1, 5]: increase in lipid-ROS which can be attenuated by ferrostatin-1
Selectivity^a (fold) (SU-DHL-6): 269 fold
IC50 (SU-DHL-6; 24 h, read-out: IC50): 0.019 µM
IC50 (SU-DHL-6; [6]): 5110 µM
selectivity for DTPs vs PC9 parental cells, result in words [3]: greater potency and selectivity to DTP cells
% Viability Persister ([3]; dose 1.0 μM): 48.00%
% Viability Persister + 2 μM Fer-1 ([3]; dose 1.0 μM): 93.75%
% Viability Persister ([3]; dose 10.0 μM): 3.25%

CC(C)(COC(=O)CCl)NC(=O)c1cc2cc([N+](=O)[O-])ccc2[nH]1 [QW-148]
EC50 (GPX4^U46C): 39.7 µM
IC50 (HT-1080 cells; [7]): 37.7 µM
IC50 (HT-1080 cells; [8]): 95.9 µM

CC(C)(COC(=O)CCl)NC(=O)c1cc2ccc(Br)cc2[nH]1 [QW-156]
EC50 (GPX4^U46C): 0.218 µM
IC50 (HT-1080 cells; [7]): 22.9 µM
IC50 (HT-1080 cells; [8]): 33.1 µM
lipid peroxidation (C11-BODIPY), result in words [1, 5]: induced fer-1 rescuable increases in lipid peroxidation
Solubility ([2]; aqueous solubility, Table 9): 23 µM (≈ 8.92 µg/mL)
selectivity for DTPs vs PC9 parental cells, result in words [3]: no selectivity for DTP cells over PC9 cells at most concentrations tested
% Viability Persister ([3]; dose 1.0 μM): 122.00%
% Viability Persister ([3]; dose 10.0 μM): 73.25%
% Viability Persister ([3]; dose 25.0 μM): 24.50%
% Viability Persister ([3]; dose 50.0 μM): 2.50%

COc1ccc2cc(C(=O)NC(C)(C)COC(=O)CCl)[nH]c2c1 [QW-152]
EC50 (GPX4^U46C): 0.678 µM
IC50 (HT-1080 cells; [7]): 55.5 µM
IC50 (HT-1080 cells; [8]): 167 µM
Solubility ([2]; aqueous solubility, Table 9): 88 µM (≈ 29.8 µg/mL)

COc1ccc(-c2ccc3c(C(=O)NC(C)(C)COC(=O)CCl)nn(C)c3c2)cc1Cl [QW-446]
Kd (GPX4^U46C; MST): 0.485 µM
times more potent than RSL3 (binding affinity) (GPX4^U46C; MST, relative to RSL3): 15 times
IC50 (HT-1080 cells; HT1080 + Fer-1, read-out: IC50 (uM) HT1080 + Fer-1): 30.3 µM
ferroptosis selectivity (HT-1080 cells; HT-1080): 69
Selectivity (HT-1080 cells; ferroptosis selectivity, HT1080 + Fer-1 vs HT1080): 69
IC50 (HT-1080 cells; read-out: IC50 HT1080): 0.44 µM
lipid peroxidation (C11-BODIPY), result in words [1, 5]: induced fer-1 rescuable increases in lipid peroxidation
ferroptosis induction / potency in SU-DHL-6 cells, result in words (SU-DHL-6): a potency that is similar to RSL3
aqueous solubility [2]: up to 1000 μM
Solubility ([2]; 1% DMSO, Phosphate Buffered Saline pH 7.4, 1 hour, ambient, UV/Vis absorbance): 22 µM (≈ 10.2 µg/mL)
Solubility ([2]; aqueous solubility, Table 9): >1000 µM
selectivity for DTPs vs PC9 parental cells, result in words [3]: show DTP selectivity relative to PC9 parental cells; also recorded: selective and similar or stronger cytotoxicity to DTP cells
% Viability Persister ([3]; dose 0.5 μM): 127.75%
% Viability Persister + 2 μM Fer-1 ([3]; dose 0.5 μM): 110.75%
% Viability Persister ([3]; dose 10.0 μM): 26.50%
% Viability Persister + 2 μM Fer-1 ([3]; dose 10.0 μM): 107.50%
% Viability Persister ([3]; dose 20.0 μM): 4.25%
% Viability Persister + 2 μM Fer-1 ([3]; dose 20.0 μM): 27.00%

COc1cccc2[nH]c(C(=O)n3ccnc3)cc12 [LOC1886, reference compound]
Kd (GPX4^U46C; MST): 263 µM
EC50 (GPX4^U46C): 263 µM
IC50 (HT-1080 cells; Homo sapiens, HT-1080, compounds alone, read-out: IC50 (μM) HT1080^a): 163 µM
IC50 (HT-1080 cells; Homo sapiens, HT-1080, compounds and fer-1 1.0 μM, read-out: IC50 (μM) HT1080^b): 109 µM
ferroptosis induction / potency in HT-1080 cells, result in words (HT-1080 cells; RSL3 as control): no fer-1 rescue was observed
lipid peroxidation (C11-BODIPY), result in words [1, 5]: induces lipid peroxidation in cells

COC(=O)c1ccc([C@@H]2c3[nH]c4ccccc4c3C[C@@H](C(=O)OC)N2C(=O)CCl)cc1 [RSL3, reference compound]
Selectivity (HT-1080 cells): 103.6
IC50 (HT-1080 cells; [7]): 0.044 µM
IC50 (HT-1080 cells; compounds alone, Table 7, read-out: IC50 (uM) HT1080^a): 0.044 µM
IC50 (HT-1080 cells; compounds alone, read-out: IC50 (μM) HT1080^a): 0.044 µM
IC50 (HT-1080 cells; compounds and fer-1 1.0 μM, read-out: IC50 (μM) HT1080^b): 4.6 µM
IC50 (HT-1080 cells; [4]): 4.6 µM
IC50 (HT-1080 cells; [8]): 4.6 µM
IC50 (HT-1080 cells; with fer-1, Table 7, read-out: IC50 (uM) HT1080^b): 4.6 µM
IC50 (HT-1080 cells; without Fer-1, Table 10, read-out: IC50 HT1080): 0.0444 µM
Selectivity^a (fold) (SU-DHL-6): 71 fold
IC50 (SU-DHL-6; 24 h, read-out: IC50): 0.019 µM
IC50 (SU-DHL-6; [6]): 1.35 µM
Solubility ([2]; aqueous solubility, Table 9): 26 µM (≈ 11.5 µg/mL)
% Viability Persister ([3]; dose 1.0 μM): 6.00%

CC(C)(COC(=O)CCl)NC(=O)c1cc2ccccc2[nH]1 [QW-147]
EC50 (GPX4^U46C): 2.4 µM
IC50 (HT-1080 cells; [7]): 34.8 µM
IC50 (HT-1080 cells; [8]): 37.2 µM
